Like-named read-outs stand apart in the source and are kept apart here.
Details: initial risperidone 15 mg/mL, control value = solubility of risperidone
Experimental: The resin and risperidone were added to either water, citrate-phosphate buffer at pH 5.93 or a 1.7% gelatin solution (Table 1a). The initial concentration of risperidone in the slurries was 15 mg/mL. The control consisted of risperidone in each of the three aqueous media.
Each slurry was placed into centrifuge tubes, capped and mixed with a Burrell Wrist action shaker model 75 for 24 hours. After 24 hours, the slurry was centrifuged at a relative centrifugal force of 38,724 g for 18 minutes. The supernatant was collected, filtered through a 0.45 μl nylon filter and assayed for risperidone by an isocratic HPLC method. The concentration of drug present in the supernatant represented the amount of unbound or “free” risperidone.

Compound: Cc1nc2n(c(=O)c1CCN1CCC(c3noc4cc(F)ccc34)CC1)CCCC2 [Risperidone (Control), risperidone]
- Concentration of Risperidone in Supernatant after 24 Hours Mixing (1.7% Gelatin): 1062.1 µg/mL
- Concentration of Risperidone in Supernatant after 24 Hours Mixing (Citrate-Phosphate Buffer (pH 5.93)): 4603.6 µg/mL
- Concentration of Risperidone in Supernatant after 24 Hours Mixing (Purified Water): 85.82 µg/mL

From patent publication US20050036977A1, “Taste-masked resinate and preparation thereof” (priority 2003, published 2005)
